Data: ChEMBL document CHEMBL5604062, “ASAP - ZIKV NS2B-NS3 protease fluorescence dose response” (2024)

Biological target: Nonstructural protein 3 (Zika virus, UniProt A0A024AXB9)
Test: Functional biochemical assay to identify treatments for viral infectious disease that targets Zika NS2B-NS3 protease. Utilizing a direct enzyme activity measurement method, reading the fluorescence intensity is used to characterize the relative potency of inhibitors as IC50.
Set-up: species or system PRVABC59

Nonstructural protein 3, sequence (A0A024AXB9 whole entry): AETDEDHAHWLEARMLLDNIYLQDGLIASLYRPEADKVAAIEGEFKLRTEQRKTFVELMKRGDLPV

Row | SMILES | IC50 [µM]
1 | O=C(O)c1cc2cc(-c3cc(Cl)cc4c3CCNC4=O)ccc2[nH]1 | > 99.5
2 | O=C(Nc1cccc([C@@H]2C[C@H]2C(=O)O)c1)c1cc(Cl)cc2[nH]ncc12 | > 99.5
3 | N#C[C@]1(Nc2cccc(-c3nn[nH]n3)c2)C(=O)Nc2ccc(Cl)cc21 | > 99.5
4 | C=CC[C@H](Nc1cncc(Cl)c1)c1cccc(-c2nn[nH]n2)c1 | > 99.5
5 | C=CC[C@H](Nc1cccc(Cl)c1)c1cccc(-c2nn[nH]n2)c1 | > 99.5
6 | O=C(Nc1cc(Cl)cc([C@H](Nc2cccc(-c3nn[nH]n3)c2)C(=O)N[C@H]2CCOC2)c1)OCc1ccccc1 | > 99.5
7 | NCCCOc1cc(-c2ccc(N)nc2)cc2c1COB2O | > 99.5
8 | CCCn1cc(-c2cc(Cl)cc(NC(=O)OCc3ccccc3)c2)c(C(=O)O)n1 | > 99.5
9 | O=C(O)CCCn1cnc(-c2cc(Cl)cc(NC(=O)OCc3ccccc3)c2)n1 | > 99.5
10 | N#C[C@H](c1cc(Cl)cc(C2CC2)c1)N1c2cnccc2C[C@H]1C(=O)O | > 99.5
11 | NCc1cc(CCc2cc(Cl)cc(NC(=O)OCc3ccccc3)c2)cc(C(=O)O)c1 | > 99.5
12 | N#C[C@H](Nc1cccc(-c2nn[nH]n2)c1)c1cc(Cl)cc2[nH]ncc12 | > 99.5
13 | Clc1cc([C@@H]2C[C@H]2c2cccc(-c3nn[nH]n3)c2)c2cn[nH]c2c1 | > 99.5
14 | O=C(Nc1cccc(-n2nn[nH]c2=O)c1)c1cc(Cl)cc(C2CC2)c1 | > 99.5
15 | O=C(Nc1cc(Cl)cc([C@H]2[C@H](CO)[C@@H]2c2cccc(-c3nn[nH]n3)c2)c1)OCc1ccccc1 | 84.1
16 | O=C(O)c1cc2cc(-c3nccc(C(F)F)n3)ccc2[nH]1 | > 99.5
17 | NCc1cc(Cl)cc(-c2ccc3[nH]c(C(=O)O)cc3c2)c1 | > 99.5
18 | NC[C@@H]1CN(c2cc(-c3ccc(N)nc3)cc3c2COB3O)C(=O)O1 | > 99.5
19 | O=C(Nc1cc(Cl)cc([C@H](Nc2cccc(-c3nn[nH]n3)c2)C(=O)NC[C@H]2CCCO2)c1)OCc1ccccc1 | > 99.5
20 | N#C[C@H](Nc1ccc(CCC(=O)O)cn1)c1cc(Cl)cc(C2CC2)c1 | > 99.5
21 | O=Cc1ccc(N2CCC(C(=O)NCc3cccc(-c4ccccc4)c3)CC2)cc1 | > 99.9

Row | SMILES | IC50 [µM]
22 | N#C[C@H](Nc1cccn(CC(=O)O)c1=O)c1cc(Cl)cc(C2CC2)c1 | > 99.5
23 | CNc1ncc(C(F)(F)F)cc1-c1ccc2[nH]c(C(=O)O)cc2c1 | > 99.5
24 | O=C(Nc1cc(Cl)cc(C(=O)N2CCC(C(=O)O)CC2)c1)OCc1ccccc1 | > 99.5
25 | O=C(Nc1cc(Cl)cc([C@H](Nc2cccc(-c3nn[nH]n3)c2)C(=O)NC2CCOCC2)c1)OCc1ccccc1 | > 99.5
26 | O=C(Nc1cc(Cl)cc(-c2ccn3c(C(=O)O)cnc3c2)c1)OCc1ccccc1 | > 99.5
27 | O=C(O)c1cccc(CCc2cc(Cl)cc3[nH]ncc23)c1 | > 99.5
28 | OCC#C[C@H](Nc1ccc(-c2nnn[nH]2)cc1)c1cc(Cl)cc(C2CC2)c1 | > 99.5
29 | O=C(Nc1cc(Cl)cc(-c2cn(C3CCCC3)nc2C(=O)O)c1)OCc1ccccc1 | 95.2
30 | NCc1ccc(C(=O)O)c(NC(=O)c2cc(Cl)cc(NC(=O)OCc3ccccc3)c2)c1 | > 99.5
31 | CC(C)CNC(=O)[C@H](Nc1cccc(-c2nnn[nH]2)c1)c1cc(Cl)cc(C2CC2)c1 | > 99.5
32 | N#Cc1cc(CN)cc([C@H]2C[C@@H]2c2cc(Cl)cc(NC(=O)OCc3ccccc3)c2)c1 | > 99.5
33 | O=C(Nc1cc(Cl)cc(C(=O)N2CCC[C@H]2C(=O)O)c1)OCc1ccccc1 | > 99.5
34 | NCCCOc1cc2c(c(-c3ccc(N)nc3)c1)CCB(O)O2 | > 99.5
35 | CC(C)[C@H](N)P(=O)(Oc1ccc(F)cc1)Oc1ccc(F)cc1 | > 99.5
36 | O=C(Nc1cc(Cl)cc(C(=O)NC2(c3nnn[nH]3)CC2)c1)OCc1ccccc1 | > 99.5
37 | COc1cc(-c2cc(Cl)cc(NC(=O)OCc3ccccc3)c2)c(OC)cc1CC(=O)O | 94.2
38 | O=C(Nc1cc(Cl)cc([C@H]2Nc3ccc(-c4nn[nH]n4)cc3[C@H]3OCCC[C@@H]23)c1)OCc1ccccc1 | > 99.5
39 | O=C(Nc1cc(Cl)cc(-c2cc3cc(C(=O)O)ncn3c2)c1)OCc1ccccc1 | > 99.5
40 | Cc1c(C(=O)Nc2cccc(-c3nnn[nH]3)c2)cnn1-c1ccc(Cl)cc1 | > 99.5
41 | CNC(=O)[C@H](Nc1cc(Cl)cc(C2CC2)c1)c1ccc(-c2nn[nH]n2)cc1 | > 99.5
42 | O=C(Nc1cc(Cl)cc(-c2cnn3ccc(C(=O)O)cc23)c1)OCc1ccccc1 | > 99.5

Row | SMILES | IC50 [µM]
43 | CNC(=O)[C@H](Nc1cccc(C2(C(=O)O)CCC2)c1)c1cc(Cl)cc(C2CC2)c1 | > 99.5
44 | O=C(Nc1cc(Cl)cc(C(=O)Nc2cc(C(=O)O)ccn2)c1)OCc1ccccc1 | > 99.5
45 | CNC(=O)[C@H](Nc1cc(Cl)cc(NC(=O)OCc2ccccc2)c1)c1ccc(-c2nn[nH]n2)cc1 | > 99.5
46 | COCCNC(=O)[C@H](Nc1cccc(-c2nn[nH]n2)c1)c1cc(Cl)cc(NC(=O)OCc2ccccc2)c1 | > 99.5
47 | N#Cc1cc(Cl)cc(-c2ccc3[nH]c(C(=O)O)cc3c2)c1 | > 99.5
48 | O=C(O)C[C@H]1CCCN1C(=O)c1cc(Cl)cc(NC(=O)OCc2ccccc2)c1 | > 99.5
49 | CNC(=O)[C@H](Nc1cncc(C(=O)O)c1)c1cc(Cl)cc(C2CC2)c1 | > 99.5
50 | C[C@H](C(=O)O)N(C)C(=O)c1cc(Cl)cc(NC(=O)OCc2ccccc2)c1 | > 99.5
51 | C[C@](O)(Cc1cc(Cl)cc(NC(=O)OCc2ccccc2)c1)c1cccc(CN)c1 | > 99.5
52 | CN(C)CCNC(=O)[C@H](Nc1cccc(-c2nn[nH]n2)c1)c1cc(Cl)cc(NC(=O)OCc2ccccc2)c1 | > 99.5
53 | NC(=O)C1(N2CCCCC2)CCN(C(=O)C2CCN(c3ccc(C=O)cc3)CC2)CC1 | 57.5
54 | CNC(=O)[C@H](Nc1cccc(-c2nnn[nH]2)c1)c1cc(Cl)cc(C2CC2)c1 | > 99.5
55 | CN(C)C(=O)Nc1cccc([C@@H]2C[C@H]2c2cc(Cl)cc(NC(=O)OCc3ccccc3)c2)c1 | > 99.5
56 | CC(C)[C@H](NC(=O)[C@@H]1CCCN1C(=O)OCc1ccccc1)P(=O)(Oc1ccc(F)cc1)Oc1ccc(F)cc1 | > 99.5
57 | CNC(=O)[C@H](Nc1ccc(-c2nn[nH]n2)cc1)c1cc(Cl)cc(NC(=O)OCc2ccccc2)c1 | > 99.5
58 | CC(C)[C@H](CC(=O)O)NC(=O)c1cc(Cl)cc(NC(=O)OCc2ccccc2)c1 | > 99.5
59 | N#C[C@H](Nc1ccc(CC(=O)O)cn1)c1cc(Cl)cc(C2CC2)c1 | > 99.5
60 | O=C(Nc1cc(Cl)cc(C(=O)Nc2ccnc(C(=O)O)c2)c1)OCc1ccccc1 | > 99.5
61 | O=C(Nc1cc(Cl)cc(C(=O)N2CC[C@H](C(=O)O)C2)c1)OCc1ccccc1 | > 99.5

The remaining lines, values ahead:

Row | IC50 [µM] | SMILES
62 | 14.6 | NCc1cc(C(=O)N2CCNC(=O)C2)cc([C@@H]2C[C@H]2c2cc(Cl)cc(NC(=O)OCc3ccccc3)c2)c1
63 | 26.9 | CCOC(=O)[C@H]1[C@H](c2cc(Cl)cc(NC(=O)OCc3ccccc3)c2)[C@H]1c1cccc(-c2nnn[nH]2)c1
64 | 3.17 | NCc1cc(/C=C/C(=O)O)cc(NC(=O)c2cc(Cl)cc(NC(=O)OCc3ccccc3)c2)c1
65 | 24.7 | O=Cc1ccc(N2CCC(C(=O)Nc3cccc(Br)n3)CC2)cc1
66 | 55.9 | O=Cc1ccc(N2CCC(C(=O)NCCc3ccc(O)c(O)c3)CC2)cc1
67 | 51.9 | N#C[C@H](Nc1cncc(-c2nn[nH]n2)c1)c1cc(Cl)cc(NC(=O)OCc2ccccc2)c1
68 | 0.116 | N#C[C@H](Nc1ccc2c(c1)CNC2)c1cc(Cl)cc2[nH]ncc12
69 | 27.6 | O=C(Nc1cc(Cl)cc([C@H]2C[C@@H]2c2cccc(-c3nnn[nH]3)c2)c1)OCc1ccccc1
70 | 10.4 | NCc1cc(CO)cc([C@H]2C[C@@H]2c2cc(Cl)cc(NC(=O)OCc3ccccc3)c2)c1
71 | 17.8 | O=C(Nc1cc(Cl)cc(-c2ccc3[nH]nc(C(=O)O)c3c2)c1)OCc1ccccc1
72 | 25 | O=Cc1ccc(N2CCC(C(=O)NCCN3CCc4ccccc43)CC2)cc1
73 | 27.3 | O=C(Nc1cc(Cl)cc(CNc2cccc(-c3nn[nH]n3)c2)c1)OCc1ccccc1
74 | 11.8 | O=C(Nc1cc(Cl)cc(-c2ccc3cc(C(=O)O)[nH]c3c2)c1)OCc1ccccc1
75 | 5.66 | NCc1cc(NC(=O)c2cc(Cl)cc(NC(=O)OCc3ccccc3)c2)cc([C@@H]2C[C@H]2C(=O)O)c1
76 | 24.7 | O=C(Nc1cc(Cl)cc(-c2ccc3nc(C(=O)O)ncc3c2)c1)OCc1ccccc1
77 | 0.795 | CNC(=O)[C@H](Nc1cc(CN)cc(C(=O)O)c1)c1cc(Cl)cc(C2CC2)c1
78 | 7.96 | NCc1cc(CC(=O)O)cc(NC(=O)c2cc(Cl)cc(NC(=O)OCc3ccccc3)c2)c1

Row | IC50 [µM] | SMILES
79 | 8.13 | CC(=Cc1cccc(CN)c1)c1cc(Cl)cc(NC(=O)OCc2ccccc2)c1
80 | 5.57 | C[C@@]1(c2cccc(CN)c2)C[C@H]1c1cc(Cl)cc(NC(=O)OCc2ccccc2)c1
81 | 1.1 | OCC#C[C@H](Nc1ccc2c(c1)CNC2)c1cc(Cl)cc2[nH]ncc12
82 | 15.6 | NCc1cccc([C@H](C#CCO)Nc2cc(Cl)cc(NC(=O)OCc3ccccc3)c2)c1
83 | 16.8 | Clc1cccc([C@H](C#Cc2ccccc2)Nc2cccc(-c3nn[nH]n3)c2)c1
84 | 30.3 | Cc1ccc2cccc(NC(=O)C3CCN(c4ccc(C=O)cc4)CC3)c2n1
85 | 8.64 | CNC(=O)c1cc(CN)cc([C@@H]2C[C@H]2c2cc(Cl)cc(NC(=O)OCc3ccccc3)c2)c1
86 | 12.1 | CC(=Cc1cccc(-c2nnn[nH]2)c1)c1cc(Cl)cc(NC(=O)OCc2ccccc2)c1
87 | 19.5 | C[C@@]1(c2cc(Cl)cc(NC(=O)OCc3ccccc3)c2)C[C@H]1c1cccc(CN)c1
88 | 32.9 | O=C(O)c1cc2cc(-c3cc(Cl)cc(C4CC4)c3)ccc2[nH]1
89 | 23.1 | O=C(Nc1cc(Cl)cc(-c2cccc3c(C(=O)O)cccc23)c1)OCc1ccccc1
90 | 11.6 | NCc1cc(Br)cc([C@H]2C[C@@H]2c2cc(Cl)cc(NC(=O)OCc3ccccc3)c2)c1
91 | 54 | O=Cc1ccc(N2CCC(C(=O)Nc3ncc(Br)cc3O)CC2)cc1
92 | 26.4 | CCc1cc(Br)cc2c(Cc3ccc(-c4nnn[nH]4)cc3)c[nH]c12
93 | 52.4 | O=C(Nc1cc(Cl)cc(N[C@H](C#CCO)c2ccc(-c3nn[nH]n3)cc2)c1)OCc1ccccc1
94 | 1.16 | CNC(=O)[C@H](Nc1cc(CN)cc(C(=O)O)c1)c1cc(Cl)cc(NC(=O)OCc2ccccc2)c1
95 | 0.589 | CNC(=O)[C@H](Nc1cc(CN)cc(-c2nn[nH]n2)c1)c1cc(Cl)cc(C2CC2)c1
